According to a melting point compilation (Tetko et al.; mined from patent text by program, amines drawn as free bases though some values may be those of a salt):

Row | SMILES | melting point
1 | CC1(C)OC(=O)C(Oc2ccc3ccccc3n2)=C1c1ccc(S(C)(=O)=O)cc1 | 141 to 142 °C
2 | C#CCn1ccc(C(=O)OC)c1C=O | 76 °C
3 | CCCc1ccc2nc(Cl)c(S(N)(=O)=O)n2n1 | 174 to 175 °C
4 | O=S(=O)(CCc1ccc(O)cc1)CC1CCC1 | 112 °C
5 | COC(=O)C1(O/N=C(\C(=O)OC(c2ccccc2)c2ccccc2)c2csc(NC(c3ccccc3)(c3ccccc3)c3ccccc3)n2)CCCCC1 | 180 to 182 °C
6 | CCOC(=O)C1CCCCC1(c1ccc(O)c(C(C)(C)C)c1)c1ccc(O)c(C(C)(C)C)c1 (centres undefined) | 86 °C
7 | CCOC(=O)C(CC#Cc1ccccc1)(NC(C)=O)C(=O)OCC | 94 to 96.5 °C
8 | c1ccc(NN2CCc3ccccc3C2)nc1 | 116 to 117 °C
9 | CCOC(=O)c1cnc2c(cnn2CC)c1Cl | 55 to 60 °C
10 | Fc1ccc(-c2[nH]c(C3CCN(Cc4ccccc4)CC3)nc2-c2ccncc2)cc1 | 212 to 215 °C
11 | CC1(C)NC(=O)CN1C(=O)CNC(=O)CN1CC(O)CC1=O (centres undefined) | 227 to 229 °C
12 | Fc1ccc2c(c1)CCc1cccnc1C2=C1CCNCC1 | 134 °C
13 | CCN(CC)C(=S)Oc1cccnc1F | 52 to 54 °C
14 | CC(Br)CN(CC(C)Br)c1c(C(=O)NCCOP(=O)(O)O)cc([N+](=O)[O-])cc1[N+](=O)[O-] (centres undefined) | 157 to 161 °C
15 | Cc1c(CCC2CC(OC3CCCCO3)CC(=O)O2)c2c(c(C)c1OC(=O)c1ccccc1)CC(C)(C)O2 (centres undefined) | 139 to 140 °C
16 | Nc1nccn2c(C3CCC3)nc(-c3ccccc3)c12 | 164 to 166 °C
17 | CCCCCCCCCCOc1cc(OCCCCCCc2cccc(O)c2O)cc(C(=O)OC)c1 | 71 to 72 °C
18 | Cc1cc(-n2nc(C#N)cc2-c2ccc(S(C)(=O)=O)cc2)ccc1Br | 152 °C
19 | CN(C)c1cc(C(=O)CS(C)(=O)=O)cc(N(C)C)c1C(C)(C)C | 177 to 179 °C
20 | CC(C)C(C#N)NC(=O)c1snc(Cl)c1Cl (centres undefined) | 120 to 121 °C
21 | CS(=O)(=O)c1c(Cl)ccc(C(=O)O)c1Cl | 158 °C

Row | SMILES | melting point
22 | NC(N)C(=O)c1ccccc1 | 104 to 107 °C
23 | CCCCCCCCOc1ccc(-c2ncc(Br)cn2)cc1 | 95 °C
24 | CN1c2ccccc2C(C)(C)C12CNc1c(cc(N3CCCCC3)c3oc4ccccc4c13)O2 (centres undefined) | 214 to 216 °C
25 | CC1(O)CC=C2C3CCC4=CC(=O)CCC4C3C(c3ccc(-c4ccoc4)cc3)CC21C (centres undefined) | 198 to 199 °C
26 | CC(=NNc1nnc(-n2c(=S)[nH]c3ccccc32)s1)c1ccccn1 | > 280 °C
27 | C[C@H]1CCCC(C)(C)[C@@H]1[C@H](O)c1ccc(C(F)(F)F)c(F)c1 | 71 to 73 °C
28 | CSc1nnc(-c2ccc(Cl)cc2)o1 | 121 to 123 °C
29 | Cc1oc(-c2ccccc2)nc1CC#Cc1ccc(CC(C(=O)O)c2cccc(-c3ccccc3)c2)cc1 (centres undefined) | 105 to 107 °C
30 | CCOC(=O)c1cc([N+](=O)[O-])cn1Cc1ccccc1 | 73 °C
31 | CC(=Cc1ccccc1)c1cc2c(cc1C)C(C)(C)CCC2(C)C | 75 to 77 °C
32 | CCCCCCCCCCC1CCCC1C(=O)Nc1cccc2ncccc12 (centres undefined) | 75 °C
33 | COC(=O)C1Sc2cc(Cl)ccc2OCC1=O (centres undefined) | 92 to 94 °C
34 | CSc1nc(Cl)cc2nncn12 | 164 to 165 °C
35 | COc1nccc(C)c1NC(=O)OC(C)(C)C | 93 to 95 °C
36 | CCOC(=O)c1cnc2sc(-c3ccc([N+](=O)[O-])cc3)c(C)c2c1O | 260 to 261 °C
37 | CCCc1cn(C)cc(-c2cccc(C(F)(F)F)c2)c1=S | 145 to 148 °C
38 | CN1Cc2c(C(=O)OC(C)(C)C)ncn2-c2cccc(Cl)c2C1=O | 188 to 190 °C
39 | O=C(c1ccccc1O)c1ccc(O)c(Cl)c1Cl | 200 to 202 °C
40 | CCOC(=O)c1c2n(c3c(F)c(Cl)ccc3c1=O)CCS2 | 216 °C
41 | N#Cc1ccc(OCCCN2CCC(C(O)(c3ccc(F)cc3)c3ccc(F)cc3)CC2)cc1 | 107 to 108 °C
42 | Clc1ccc(-c2cn3c(n2)CCCC3)c(Cl)c1 | 134 to 136 °C

Other lines, results leading:

Row | melting point | SMILES
43 | 153 to 154 °C | Cc1ccc(-c2cccc(/C=C/C(=O)Nc3ccc(CN4CCCC(CO)C4)cc3)c2)cc1 (centres undefined)
44 | 144 to 145 °C | CC(C)n1nc(-c2sc(NC(=O)CNCc3ccccc3)nc2-c2ccccc2)ccc1=O
45 | 80 °C | COc1ccc(CC(=O)NCCc2cccc(OC)c2OC)cc1OC
46 | 249 °C | Cc1ccc2c(c1)c1cc(-c3ccc(Cl)cc3Cl)c(=O)n(C)c1n2CCCN1C(=O)c2ccccc2C1=O
47 | 91.5 to 92.5 °C | CCOCCOCCOc1ccc(C(=O)CN(Cc2ccccc2)Cc2ccccc2)cc1C(N)=O
48 | 134 to 136 °C | Clc1ccc(-c2cc(C3CCN(Cc4cccc(Cl)c4)CC3)n[nH]2)cc1
49 | 160 to 163 °C | COc1ccc(C(=O)Nc2ccc(F)c(F)c2)cc1NCc1cccc(O)c1
50 | 298 to 302 °C | CCOC(=O)c1cc2c(cn1)[nH]c1cccc(C=Nc3ccccc3)c12
51 | 95 to 96 °C | CCc1nc(Cl)c(C(=O)N(C)CC)n1Cc1ccc2oc(-c3ccccc3NC(=O)OC(C)(C)C)c(Br)c2c1
52 | 97 to 97.5 °C | O=C(C=CCN1CCC(O)(c2ccc(Cl)cc2)CC1)c1ccc(F)cc1
53 | 283 °C | COc1ccc(-c2[nH]nc3c2C(=O)c2c(NC(=O)NNC(=O)c4ccc(O)cc4)cccc2-3)cc1
54 | 108 °C | COc1ccc(C=CC(=O)c2ccc(OC)cc2O)cc1
55 | 96 °C | CC(C)(C)c1cccc(S(=O)(=O)n2c(Cc3ccc(CNS(C)(=O)=O)cc3)cc3cc(C(F)(F)F)ccc32)c1
56 | 100 to 105 °C | CN(C(=O)C(Cc1c[nH]c2ccccc12)NC(=O)OC(C)(C)C(Cl)(Cl)Cl)C(Cc1ccccc1)C(N)=O (racemic)
57 | 94 to 95 °C | CCc1cccc(CC(=O)O)c1OCCCc1cn(Cc2nc(-c3ccccc3)oc2C)nc1C(C)C
58 | 170 to 174 °C | O=C(CN1CCC(Cc2ccccc2)CC1)Nc1ccc2[nH]ncc2c1
59 | 148 to 150 °C | CCC1(CCCCN2CCN(c3ccc(Cl)cc3)CC2)C(=O)Nc2ccc(F)cc21 (centres undefined)
60 | 174 to 176 °C | CN(C1CCN(C(=O)OC(C)(C)C)CC1)S(=O)(=O)c1ccc(Nc2nccc(Nc3ccc(F)cc3)n2)cc1
61 | 117 to 118 °C | C=C(c1ccc(I)cc1)C(O)(Cn1cncn1)c1ccccc1F (centres undefined)
62 | 129 to 130 °C | COc1ccc(CCCC(O)COc2ccc(OCc3ncc[nH]3)cc2)cc1OC (centres undefined)
63 | 109 °C | O=[N+]([O-])c1cccc(OCc2ccc3ccccc3n2)c1
64 | 105 to 106 °C | c1ccc(COc2ccc3ccc4cccc5ccc2c3c45)cc1
65 | 219 to 220 °C | Oc1ccc2c(c1)CCc1c-2oc2cc(O)ccc12
66 | 90.5 to 92 °C | COC(=O)c1ccccc1-c1cc(-c2ccc(C(F)(F)F)cc2)no1
67 | 206 to 210 °C | COC(=O)CCc1cc2cc(Cl)ccc2n1S(=O)(=O)c1cccc2c(C(=O)CN)cccc12
68 | 123 °C | Cc1cc(Cl)cc(C(=O)Nc2cccc(F)c2)n1
69 | 157 to 163 °C | COc1cc(C(C)(C)CNC(=O)c2cccc(Br)c2)cc2c1OC(C)(C)C2
